Key:
[1] = Clinical studies #7 and #8: edaravone oral dose vs AUC (4-parameter logistic model) compared with 60-mg intravenous administration; type: in vivo; conditions: human, plasma; approved 60-mg edaravone intravenous administration formulation (60 mg/60 min)
Experimental: Specifically, clinical studies #7 and #8 described below were conducted in healthy adult male subjects for each subject group. In clinical studies #7 and #8, one dose each of edaravone oral formulations (edaravone suspensions) of formulas #7 and #8 shown in Table 11 below were used respectively and administered orally once during the study period.
Any of the edaravone oral formulations (formula #7) with an edaravone content of 30 mg, 60 mg, 120 mg, 200 mg, or 300 mg was administered orally to subjects in fasted conditions after a lapse of 10 hours or longer from consumption of a meal. The edaravone oral formulations with each content were each administered orally to 6 subjects. Blood samples were each collected before the administration, and 15 minutes, 30 minutes, 1 hour, 1.5 hours, 2 hours, 4 hours, 6 hours, 8 hours, 12 hours, 24 hours, 36 hours, and 48 hours after the administration, the concentrations of unchanged edaravone were measured, and the AUCs were calculated.
The edaravone oral formulations (formula #8) with an edaravone content of 100 mg was administered orally to 9 subjects in fasted conditions after a lapse of 10 hours or longer from consumption of a meal. […]

Caco-2 cells = test: Caco-2 cell monolayer membrane permeability test
Experimental: (§1) Caco-2 cells were seeded on a 24-well plate, cultured at 37° C. for 21 to 23 days in a CO2 incubator, and then a Caco-2 cell monolayer membrane permeability test was conducted. After checking the membrane resistance value of the cell layer after the culture, the culture medium in the plate was replaced with HBSS (pH 7.4). […] For the control compounds, [^3H]propranolol as a high membrane permeability control and [^14C]mannitol as a low membrane permeability control were used.

[2] = Caco-2 cell monolayer membrane permeability test; conditions: human, Caco-2, pH 7.4
Experimental: as §1

[3] = Clinical study #11: PK of edaravone oral formulation (formula #3) via nasopharyngeal gastric tube vs oral in healthy adults; type: in vivo, human; conditions: for AUC(0-inf) / Cmax / AUC / half-life / Tmax: human, plasma; for AUC(0-inf) / Cmax: 105 mg; for Tmax: read-out: tmax (median)
Experimental: Pharmacokinetics of edaravone in administration of the edaravone oral formulation via a PEG tube was evaluated in 36 healthy adults. Specifically, performing gastrostomy in healthy adults is difficult, thus a nasopharyngeal gastric tube (NG tube), which allows the administration into the stomach via a tube in the same manner, was used as a model of administration via a percutaneous endoscopic gastrostomy tube (PEG tube), and a clinical study #11 described below was conducted.
The edaravone oral formulation (#3) was administered via a nasopharyngeal gastric tube (NG tube) to the subject group in fasted conditions after a lapse of 10 hours or longer from consumption of a meal. In the administration via an NG tube, first, 100 mL of lukewarm water was injected through an NG tube 1 hour before the administration of the edaravone oral formulation, and 10 mL of lukewarm water was injected through an NG tube immediately before the administration. Then, the edaravone oral formulation was administered to the NG tube, and further 30 mL of water was injected through the NG tube to wash in the edaravone oral formulation. Blood samples were each collected before the administration, and 5 minutes, 15 minutes, 30 minutes, 45 minutes, 1 hour, 1.5 hours, 2 hours, 4 hours, 6 hours, 8 hours, 10 hours, 12 hours, 24 hours, 36 hours, and 48 hours after the administration, and the concentrations of unchanged edaravone in plasma were measured. As a reference example, the same edaravone oral formulation was administered orally to the same subjects, blood samples were collected, and the concentrations of unchanged edaravone in plasma were measured in the same manner. For the oral administration, the edaravone oral formulation was administered orally after a lapse of 10 hours or longer from the previous meal consumption. None of the subjects consumed a next meal until the blood sample collection 4 hours after the administration was completed. In addition, results of an analysis of variance conducted on the AUC and Cmax in consideration of the meal condition are shown in Table 14 below.

[4] = Clinical study #5: PK of edaravone oral formulation (formula #3) in ALS patients, oral, fasted; type: in vivo, human; conditions: for difference in the AUC between the patient group and the reference group / difference in the Cmax between the patient group and the reference group: ALS patients oral vs healthy oral; for Cmax: po, 105 mg
Experimental: To evaluate the pharmacokinetics of edaravone in ALS patients, a clinical study #5 shown below was conducted in ALS patients who can live daily life independently (the patient group).
The edaravone oral formulation was administered orally to the patient group in fasted conditions after a lapse of 10 hours or longer from consumption of a meal. In the patient group, ALS patients who had been already administered with an edaravone intravenous infusion formulation were orally administered with the edaravone oral formulation after a lapse of 48 hours or longer from the time of completion of the previous administration of the intravenous infusion formulation. The same edaravone oral formulation as the formula #3 in Table 1 above was used. Then, blood samples were each collected before the administration, and 5 minutes, 15 minutes, 30 minutes, 45 minutes, 1 hour, 1.5 hours, 2 hours, 4 hours, 6 hours, 8 hours, 10 hours, 12 hours, and 24 hours after the administration, and the concentrations of unchanged edaravone in plasma were measured.
The resulting PK parameters were corrected for body weight of each subject adjusted to 70 kg by a proportional calculation for each of the patient group and the reference group. In addition, the results of the PK parameters after correction of the patient group are shown as box-whisker plots of #9 (the reference group), and individual plots of #5 (the patient group) and #9 (the reference group) in FIG. 3. In FIG. 3, X represents a mean value. […] Thus, the difference in the Cmax and the difference in the AUC before weight correction between the patient group and the reference group seen in Table 9 below are considered due to the difference in body weight between the patient group and the reference group, and the difference in the Cmax and the difference in the AUC after weight correction between the patient group and the reference group observed in FIG. 3 are each considered to be within the range of error.

[5] = Nasopharyngeal gastric tube / Oral, least squares mean ratio
[6] = other: nasopharyngeal gastric tube (NG tube), formula #3 (105 mg), Nasopharyngeal gastric tube, fasted (N = 36), mean
[7] = formula #3 (105 mg), Oral, fasted (N = 36), mean
[8] = after weight correction (70 kg)
[9] = human, plasma, 105 mg oral, fasted, ALS patients (n = 9), mean, before weight correction

AUC [1]: 1740 ng·h/mL
permeability classification under Biopharmaceutics Classification System (Caco-2 cells; based on Caco-2 membrane permeability test): high permeability compound
Papp A→B at 2 h, 100 μmol/L [2]: 32 ± 1.7 ×10⁻⁶ cm/s
AUC0-∞ Ratio [3, 5]: 0.981
Cmax Ratio [3, 5]: 1.052
AUC(0-inf) ([3]; other: nasopharyngeal gastric tube (NG tube), Nasopharyngeal gastric tube, analysis of variance, read-out: AUC0-∞ Least-square mean): 2500 ng·h/mL
Cmax ([3]; other: nasopharyngeal gastric tube (NG tube), Nasopharyngeal gastric tube, analysis of variance, read-out: Cmax Least-square mean): 2430 ng/mL
AUC(0-inf) ([3]; other: nasopharyngeal gastric tube (NG tube), formula #3 (105 mg), Nasopharyngeal gastric tube, fasted (N = 36), mean, read-out: AUC0-∞): 2620 ng·h/mL
Cmax ([3]; other: nasopharyngeal gastric tube (NG tube), formula #3 (105 mg), Nasopharyngeal gastric tube, fasted (N = 36), mean, read-out: Cmax): 2780 ng/mL
AUC [3, 6]: 2590 ng·h/mL
half-life [3, 6]: 812 min
Tmax ([3]; other: nasopharyngeal gastric tube (NG tube), formula #3 (105 mg), Nasopharyngeal gastric tube, fasted (N = 36)): 15 min
AUC(0-inf) ([3]; po, Oral, analysis of variance, read-out: AUC0-∞ Least-square mean): 2550 ng·h/mL
Cmax ([3]; po, Oral, analysis of variance, read-out: Cmax Least-square mean): 2310 ng/mL
AUC(0-inf) ([3]; po, formula #3 (105 mg), Oral, fasted (N = 36), mean, read-out: AUC0-∞): 2660 ng·h/mL
Cmax ([3]; po, formula #3 (105 mg), Oral, fasted (N = 36), mean, read-out: Cmax): 2470 ng/mL
AUC [3, 7]: 2610 ng·h/mL
half-life [3, 7]: 1290 min
Tmax ([3]; formula #3 (105 mg), Oral, fasted (N = 36)): 30 min
difference in the AUC between the patient group and the reference group [4, 8]: 5.8%
difference in the Cmax between the patient group and the reference group [4, 8]: 9.8%
difference in the AUC between the patient group and the reference group ([4]; before weight correction): 1.5%
difference in the Cmax between the patient group and the reference group ([4]; before weight correction): 15%
Cmax ([4]; human, plasma, 105 mg oral, ALS patients, corrected to 70 kg, read-out: Cmax after weight correction, mean value±standard error): 1610 ± 231 ng/mL
Cmax ([4]; human, plasma, 105 mg oral, fasted, ALS patients (n = 9), mean, before weight correction, read-out: Cmax): 1900 ng/mL
AUC ([4]; human, plasma, 105 mg oral, ALS patients, corrected to 70 kg, read-out: AUC after weight correction, mean value±standard error): 1460 ± 166 ng·h/mL
AUC(0-inf) [4, 9]: 1740 ng·h/mL
Tmax [4, 9]: 18.6 min
Structure (SMILES): CC1=NN(c2ccccc2)C(=O)C1 [Edaravone, 3-methyl-1-phenyl-2-pyrazolin-5-one]
membrane permeability relative to high permeability control (Caco-2 cells; Caco-2, vs propranolol): equal to or higher than that of propranolol
